The source of these data is patent publication US9850521B2 (Agilent Technologies, Inc., priority 2014, dated 2017).

“Also recorded” adds a separate entry of the source.

The target in the assay is Cas9 (Streptococcus pyogenes serotype M1, UniProt Q99ZW2). Put plainly: Cas9 plasmid DNA cleavage assay, testing of surfactants. The conditions noted are these: for effect on Cas9 enzyme activity: FIG. 4, versus absence of surfactants/detergents, two RNA guides; for % cleavage: linearized pKan-C1 substrate DNA, 30 min at 30° C. In kind it is biochemical. The protocol: The reactions were stopped by heat inactivation of the enzyme at 65° C. for 15 minutes. Cleavage reactions were analyzed by Agilent Tape Station using Genomic Screen Tapes.
Cas9, sequence (Q99ZW2 whole entry): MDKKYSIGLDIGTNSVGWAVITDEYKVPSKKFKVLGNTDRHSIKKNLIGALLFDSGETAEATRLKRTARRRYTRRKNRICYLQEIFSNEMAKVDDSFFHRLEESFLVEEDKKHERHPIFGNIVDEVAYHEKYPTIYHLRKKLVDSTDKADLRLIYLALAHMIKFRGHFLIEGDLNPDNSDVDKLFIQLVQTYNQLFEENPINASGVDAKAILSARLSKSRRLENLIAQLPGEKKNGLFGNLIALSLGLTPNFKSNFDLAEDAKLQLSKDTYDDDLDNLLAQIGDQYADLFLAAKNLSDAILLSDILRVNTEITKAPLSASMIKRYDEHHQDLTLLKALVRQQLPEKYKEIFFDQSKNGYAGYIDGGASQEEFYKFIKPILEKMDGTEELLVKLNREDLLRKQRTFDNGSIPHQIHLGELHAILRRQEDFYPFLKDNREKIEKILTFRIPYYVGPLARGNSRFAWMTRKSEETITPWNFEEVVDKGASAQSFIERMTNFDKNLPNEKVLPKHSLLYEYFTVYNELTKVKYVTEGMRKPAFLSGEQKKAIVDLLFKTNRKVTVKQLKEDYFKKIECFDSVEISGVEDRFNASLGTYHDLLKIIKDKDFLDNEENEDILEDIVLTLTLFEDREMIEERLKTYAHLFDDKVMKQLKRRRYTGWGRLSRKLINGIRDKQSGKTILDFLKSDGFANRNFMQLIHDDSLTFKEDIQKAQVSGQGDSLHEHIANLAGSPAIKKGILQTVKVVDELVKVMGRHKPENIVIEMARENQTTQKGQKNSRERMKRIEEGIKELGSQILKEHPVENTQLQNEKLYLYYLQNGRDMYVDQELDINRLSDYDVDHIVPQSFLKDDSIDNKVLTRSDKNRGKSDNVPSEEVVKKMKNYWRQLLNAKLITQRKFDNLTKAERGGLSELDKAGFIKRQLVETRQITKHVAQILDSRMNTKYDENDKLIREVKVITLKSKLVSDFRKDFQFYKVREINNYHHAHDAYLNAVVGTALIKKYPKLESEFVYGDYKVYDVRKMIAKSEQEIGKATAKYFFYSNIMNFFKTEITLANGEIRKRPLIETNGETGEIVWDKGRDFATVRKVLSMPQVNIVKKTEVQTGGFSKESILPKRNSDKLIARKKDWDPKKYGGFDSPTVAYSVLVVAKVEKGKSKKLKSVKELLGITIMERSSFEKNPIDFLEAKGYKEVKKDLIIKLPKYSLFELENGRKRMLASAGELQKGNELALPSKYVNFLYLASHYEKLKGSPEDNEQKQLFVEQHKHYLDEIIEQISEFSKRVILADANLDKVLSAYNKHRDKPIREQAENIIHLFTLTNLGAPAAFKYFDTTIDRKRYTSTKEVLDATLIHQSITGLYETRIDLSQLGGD
Reaction mixtures were incubated at 30° C. for 30 minutes followed by heat inactivation of the enzyme. Table 1 lists the surfactants/detergents used at various concentrations and the resulting DNA template cleavage percentage.

In the case of `C[C@H](CCC(=O)NCCC[N+](C)(C)CC(O)CS(=O)(=O)[O-])[C@H]1CC[C@H]2[C@@H]3[C@H](O)C[C@@H]4C[C@H](O)CC[C@]4(C)[C@H]3C[C@H](O)[C@]12C` (stereo partly drawn) [Chapso, reference compound], the “effect on Cas9 enzyme activity” value is listed as “had no effect on Cas9 activity”. Moreover, for the setting “Guide 601, detergent 0.025%”, the “% cleavage” value amounted to 0.52%. Further, the “% cleavage” value (Guide 601, detergent 0.05%) was 0.50%. Moreover, the “% cleavage” value (Guide 601, detergent 0.1%) came out at 0.51%. In addition, the “% cleavage” value (Guide 601, detergent 0.2%) was 0.54%. For the same compound, for the setting “Kan C1 Guide, detergent 0.025%”, the “% cleavage” value came to 0.43%. Besides, under “Kan C1 Guide, detergent 0.05%”, the “% cleavage” value worked out at 0.43%. Moreover, the “% cleavage” value (Kan C1 Guide, detergent 0.1%) stood at 0.45%. Further, the “% cleavage” value (Kan C1 Guide, detergent 0.2%) was 0.44%.
Consider “octylphenoxypolyethoxyethanol [Triton X 100]”, for which the “effect on Cas9 enzyme activity” value is reported as “improved enzyme activity; also recorded: significantly increased Cas9 activity”. Moreover, the “% cleavage” value (Guide 601, detergent 0.025%) is given as 0.60%. Further, the “% cleavage” value (Guide 601, detergent 0.05%) worked out at 0.60%. The “% cleavage” value (Guide 601, detergent 0.1%) is 0.59%. The “% cleavage” value (Guide 601, detergent 0.2%) stood at 0.65%. Further, under “Kan C1 Guide, detergent 0.025%”, the “% cleavage” value worked out at 0.54%. The “% cleavage” value (Kan C1 Guide, detergent 0.05%) was 0.51%. For the setting “Kan C1 Guide, detergent 0.1%”, the “% cleavage” value was 0.52%. Further, the “% cleavage” value (Kan C1 Guide, detergent 0.2%) amounted to 0.61%.
